Reference: paper PMC7037682, “Herb–Drug Interaction of Red Ginseng Extract and Ginsenoside Rc with Valsartan in Rats” (Molecules, 2020)
Each block holds one molecule with its values, some of them ahead of it.

Columns and labels:
UGT1A3 = tested on: UGT1A3; set-up: method as in PMID 27462006; conditions: cited from earlier work
CYP2C9 = tested on: CYP2C9; set-up: method as in PMID 30078466; conditions: cited from earlier work
OATP1B1 = conditions: cited from earlier work
OATP1B3 [1] = conditions: cited from earlier work
OATP1B3 [2] = molecular target: T1, OATP1B3 (Homo sapiens, UniProt Q9NPD5); test: Inhibition of OATP1B3-mediated valsartan uptake in HEK293-OATP1B3 cells; format: cell-based; set-up: host or cells: HEK293; conditions: 5 μM valsartan, 5 min
T1 sequence (Q9NPD5 1-702): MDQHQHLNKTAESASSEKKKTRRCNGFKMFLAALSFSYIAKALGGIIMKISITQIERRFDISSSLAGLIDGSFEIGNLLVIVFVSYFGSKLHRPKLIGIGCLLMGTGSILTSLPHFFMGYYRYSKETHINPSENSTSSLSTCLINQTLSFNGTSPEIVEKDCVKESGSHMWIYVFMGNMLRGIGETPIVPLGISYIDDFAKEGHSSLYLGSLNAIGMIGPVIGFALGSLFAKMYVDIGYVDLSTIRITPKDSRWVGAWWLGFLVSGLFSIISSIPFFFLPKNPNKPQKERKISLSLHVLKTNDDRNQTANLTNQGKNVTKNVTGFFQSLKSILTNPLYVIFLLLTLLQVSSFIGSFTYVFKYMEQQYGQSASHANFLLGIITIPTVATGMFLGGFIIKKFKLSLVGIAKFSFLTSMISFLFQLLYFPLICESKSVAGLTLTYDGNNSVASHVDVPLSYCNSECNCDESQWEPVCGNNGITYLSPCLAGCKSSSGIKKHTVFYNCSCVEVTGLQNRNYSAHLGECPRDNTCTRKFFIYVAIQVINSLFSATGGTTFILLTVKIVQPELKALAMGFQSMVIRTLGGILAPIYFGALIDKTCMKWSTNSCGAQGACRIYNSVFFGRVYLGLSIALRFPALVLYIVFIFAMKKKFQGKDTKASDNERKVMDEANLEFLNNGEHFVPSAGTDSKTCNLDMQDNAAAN
Method: Transporter mediated uptake of probe substrates or valsartan was calculated by subtracting the uptake rate of probe substrates or valsartan into HEK293-mock cells from that into HEK293 cells expressing respective transporters.

[3] = Plasma pharmacokinetics of Rc in rats after repeated iv injection; format: in vivo; conditions: rat plasma, Rc 3 mg/kg/day iv for 5 days
Method: The rats were randomly divided into the control and Rc groups. The Rc group was injected with Rc solution (3 mg/mL/kg, dissolved in saline) intravenously via the tail vein for 5 consecutive days. The control group received saline (1 mL/kg) for 5 consecutive days via the tail vein. After 1 h following the last Rc treatment, valsartan was injected intravenously via the femoral vein at 1 mg/kg.

[4] = Plasma and liver distribution of Rc in rats after iv injection; format: in vivo, rat
Method: The rats were injected with Rc solution (3 mg/mL/kg, dissolved in saline) via the tail vein. Blood samples were collected from the abdominal artery, and the liver tissue was immediately excised, gently washed with ice-cold saline, and weighed after the rats were euthanized at 2, 12, and 48 h after intravenous injection of Rc. The blood samples were centrifuged (16,000× g, 10 min, 4 °C) and the liver tissue samples were homogenized with four volumes of saline. Aliquots (50 μL each) of plasma and liver homogenates were stored at −80 °C until the analysis of the ginsenoside Rc.

UGT2B7 = tested on: UGT2B7; set-up: method as in PMID 27462006; conditions: cited from earlier work

SMILES: CC(C)=CCC[C@](C)(O)[C@H]1CC[C@]2(C)[C@@H]1[C@H](O)C[C@@H]1[C@@]3(C)CC[C@H](O[C@@H]4O[C@H](CO)[C@@H](O)[C@H](O)[C@H]4O)C(C)(C)[C@@H]3CC[C@]12C [Rh2, ginsenoside Rh2]
IC50 (UGT1A3): 37.9 µM

IC50 (OATP1B3 [2]): 4.1 µM
SMILES: CC(C)=CCC[C@](C)(O[C@@H]1O[C@H](CO[C@@H]2O[C@H](CO)[C@@H](O)[C@H](O)[C@H]2O)[C@@H](O)[C@H](O)[C@H]1O)[C@H]1CC[C@]2(C)[C@@H]1[C@H](O)C[C@@H]1[C@@]3(C)CC[C@H](O[C@@H]4O[C@H](CO)[C@@H](O)[C@H](O)[C@H]4O[C@@H]4O[C@H](CO)[C@@H](O)[C@H](O)[C@H]4O)C(C)(C)[C@@H]3CC[C@]12C [Rb1, ginsenoside Rb1]
IC50 (CYP2C9): 2.4 µM
IC50 (OATP1B1): 33.2 µM
IC50 (OATP1B3 [1]): 4.8 µM

AUC(0-inf) [3]: 1060 ± 325 µM·h
C0 [3]: 34 ± 5.22 µM
MRT [3]: 38.5 ± 5.11 h
half-life [3]: 27.5 ± 4.26 h
AUC(0-t) ([3]; read-out: AUC24h): 749 ± 185 µM·h
IC50 (OATP1B3 [2]): 1.9 µM
free Rc concentration in rat liver ([4]; estimated from concentration and protein binding): 0.07 to 0.14 µM
Kp ([4]; rat, liver (versus plasma), rats, Rc 3 mg/kg iv, 2, 12 and 48 h, read-out: liver-to-plasma concentration ratio): 0.13 to 0.2
SMILES: CC(C)=CCC[C@](C)(O[C@@H]1O[C@H](CO[C@@H]2O[C@@H](CO)[C@H](O)[C@H]2O)[C@@H](O)[C@H](O)[C@H]1O)[C@H]1CC[C@]2(C)[C@@H]1[C@H](O)C[C@@H]1[C@@]3(C)CC[C@H](O[C@@H]4O[C@H](CO)[C@@H](O)[C@H](O)[C@H]4O[C@@H]4O[C@H](CO)[C@@H](O)[C@H](O)[C@H]4O)C(C)(C)[C@@H]3CC[C@]12C [Rc, ginsenoside Rc]

SMILES: CC(C)=CCC[C@](C)(O)[C@H]1CC[C@]2(C)[C@@H]1[C@H](O)C[C@@H]1[C@@]3(C)CC[C@H](O[C@@H]4O[C@H](CO)[C@@H](O)[C@H](O)[C@H]4O[C@@H]4O[C@H](CO)[C@@H](O)[C@H](O)[C@H]4O)C(C)(C)[C@@H]3CC[C@]12C [Rg3, ginsenoside Rg3]
IC50 (UGT2B7): 23.1 µM
IC50 (UGT1A3): 20.9 µM

IC50 (OATP1B3 [2]): 5.1 µM
SMILES: CC(C)=CCC[C@](C)(O[C@@H]1O[C@H](CO[C@@H]2OC[C@H](O)[C@H](O)[C@H]2O)[C@@H](O)[C@H](O)[C@H]1O)[C@H]1CC[C@]2(C)[C@@H]1[C@H](O)C[C@@H]1[C@@]3(C)CC[C@H](O[C@@H]4O[C@H](CO)[C@@H](O)[C@H](O)[C@H]4O[C@@H]4O[C@H](CO)[C@@H](O)[C@H](O)[C@H]4O)C(C)(C)[C@@H]3CC[C@]12C [Rb2, ginsenoside Rb2]
